Assay results from US20230219912A1, “HALOGENATED BENZOTHIADIAZINES FOR THE TREATMENT OF CANCER” (BOARD OF REGENTS OF THE UNIVERSITY OF NEBRASKA, priority 2020, published 2023).
Values joined by “and” are separate entries in the source; they are usually repeats but may differ in a detail not shown here. Identical values can stand only once. “Also recorded” adds a separate entry of the source. Like-named read-outs stand apart in the source and are kept apart here.

What was measured:
[1] = system: VEGF-induced proliferation of HUVEC cells; assay: VEGF-induced HUVEC proliferation, MTT assay; format: cell-based, human; conditions: for inhibition of VEGF-induced HUVEC proliferation (in words): 20 μM; for inhibition at 20 µM: Homo sapiens, HUVEC, 48 h, read-out: % Inhibition of Proliferation
Procedure: The assay was performed as follows. Vascular endothelial growth factor (VEGF, Cat #SRP3182) was purchased from Sigma. […] Stock solutions of all compounds were prepared in DMSO and were serially diluted for cell culture treatment maintaining the final DMSO concentration at less than 1%. Cell proliferation of HUVECs was evaluated through the MTT (3-[4, 5-dimethylthiazol-2-yl]-2, 5-dimethyltetrazolium bromide) colorimetric assay, as previously described.^28 The HUVECs were seeded at a density of 10,000 cells/well in 24 well plates in serum-containing medium and cultured overnight. Cells were starved with 300 μL of assay media (0.1% BSA+0.1% FBS in basal medium) for 24 h. Then, cells were treated with 500 μL of assay medium (control group), VEGF (10 ng/mL, positive control group) or VEGF along with compounds (20 μM). After 48 h of culture, 50 μL of MTT stock (5 mg/mL in PBS) was added to each well and incubated for 2 h at 37° C. to allow the formation of dark blue formazan crystals in the metabolically active cells. The medium was removed, the cells were washed with PBS (pH 7.4), and 100 μL of acidified isopropanol (0.33 mL HCl in 100 mL isopropanol) was added to each well and incubated for 5 min with thorough agitation to solubilize the formazan crystals. An equal volume of the solution was transferred to a 96-well plate and the absorbance was immediately measured using a microplate reader at a wavelength of 570 nm.

[2] = system: 22Rv1 prostate cancer cells; assay: MTS cytotoxicity assay in 22Rv1 prostate cancer cells; conditions: 100 μM, 48 hrs treatment, MTS
Procedure: The assay was performed as follows. To determine the cell growth inhibition ability of the synthesized compounds the (3-(4,5-dimethylthiazol-2-yl)-5-(3-carboxymethoxyphenyl)-2-(4-sulfophenyl)-2H-tetrazolium) (MTS) assay used according to the manufacturer's recommended protocol. Stock solutions of the synthesized compounds were prepared in DMSO. Cells were seeded at a density of 1×10^5 cells in 96-well plates. After 24 hours, cells were treated at the indicated concentrations of test compounds, limiting the final DMSO concentration to less than 1%. After incubation at 37° C. in an environment of 5% CO2 for 48-72 hours, 10 μL of MTS reagent (CellTiter 96© AQueous One Solution Reagent) was added to each well and incubated at the above mentioned conditions for 2-4 hr. Absorbance was recorded at 490 nm on a BioTek Synergy Mx multimode plate reader and the viability of cells were plotted as percentage of controls.

[3] = target: T1, Mitochondrial respiratory complex II (Rattus norvegicus, UniProt P21913+Q641Z9+Q6PCT8+Q920L2); assay: Mitochondrial respiratory complex II inhibition assay; format: biochemical; conditions: 100 μM, relative to DMSO control; for inhibition at 100 µM: read-out: inhibition of CII
T1 construct: measured spectrophotometrically using isolated rat heart mitochondria; from tissue; host or cells: rat heart mitochondria / sub-mitochondrial particles
Procedure: The assay was performed as follows. Mitochondria were isolated either from fresh rat hearts or by differential centrifugation in sucrose-based buffer as previously described.^24 Complex II enzymatic activity was determined spectrophotometrically as the rate of succinate-driven, co-enzyme Q2-linked reduction of dichlorophenolindophenol (DCPIP).^49 Mitochondria or sub-mitochondrial particles were incubated in phosphate buffer (pH 7.4) containing 40 μM DCPIP, 1 mM KCN, 10 μM rotenone, and 50 μM co-enzyme Q2. The rate of reduction of DCPIP to DCPIPH2 was followed at […] (ε=21,000 M-1). Varying amounts of succinate and inhibitors were used to determine an IC50 value. At the end of each run thenoyltrifluoroacetone (1 mM) was added and the residual TTFA-insensitive rate subtracted.

[4] = 20 μM compound, VEGF 10 ng/mL, relative to VEGF treated cells, mean ± SEM n = 3

T1 sequence (Q920L2 35-656): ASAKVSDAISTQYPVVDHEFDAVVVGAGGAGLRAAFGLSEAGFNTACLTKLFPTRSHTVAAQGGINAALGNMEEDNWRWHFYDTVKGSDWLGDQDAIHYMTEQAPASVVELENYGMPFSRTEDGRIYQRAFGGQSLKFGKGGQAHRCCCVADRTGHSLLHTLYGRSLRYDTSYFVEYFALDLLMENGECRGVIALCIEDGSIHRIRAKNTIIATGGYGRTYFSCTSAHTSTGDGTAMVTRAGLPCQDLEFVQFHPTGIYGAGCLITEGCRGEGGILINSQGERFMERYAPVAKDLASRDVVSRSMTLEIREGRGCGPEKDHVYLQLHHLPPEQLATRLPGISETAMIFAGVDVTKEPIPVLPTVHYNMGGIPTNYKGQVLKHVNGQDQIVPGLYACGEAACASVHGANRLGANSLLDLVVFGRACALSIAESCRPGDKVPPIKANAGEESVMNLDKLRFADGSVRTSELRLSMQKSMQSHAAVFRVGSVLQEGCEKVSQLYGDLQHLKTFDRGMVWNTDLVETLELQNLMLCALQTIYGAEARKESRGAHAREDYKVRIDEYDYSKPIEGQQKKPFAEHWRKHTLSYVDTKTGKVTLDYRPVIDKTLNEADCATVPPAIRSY
T1 sequence (P21913 31-282): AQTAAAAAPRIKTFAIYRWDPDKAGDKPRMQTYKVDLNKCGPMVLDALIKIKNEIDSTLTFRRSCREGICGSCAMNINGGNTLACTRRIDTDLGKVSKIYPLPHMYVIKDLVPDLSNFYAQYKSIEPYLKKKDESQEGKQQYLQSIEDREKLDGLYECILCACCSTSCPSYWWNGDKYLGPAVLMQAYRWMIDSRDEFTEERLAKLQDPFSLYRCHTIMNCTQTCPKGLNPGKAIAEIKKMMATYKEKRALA
T1 sequence (Q641Z9 1-169): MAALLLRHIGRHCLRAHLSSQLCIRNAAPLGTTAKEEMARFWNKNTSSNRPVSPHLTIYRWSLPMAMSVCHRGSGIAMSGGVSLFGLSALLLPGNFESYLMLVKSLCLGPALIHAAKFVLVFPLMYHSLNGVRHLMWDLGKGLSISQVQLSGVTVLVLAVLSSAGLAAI
T1 sequence (Q6PCT8 57-159): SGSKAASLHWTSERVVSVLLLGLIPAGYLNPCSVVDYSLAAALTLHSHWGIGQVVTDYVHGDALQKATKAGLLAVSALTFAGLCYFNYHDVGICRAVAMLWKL

With `COc1ccc(CCNC2=NS(=O)(=O)c3cc(F)ccc3N2)cc1` [Compound 9a] the “inhibition of VEGF-induced HUVEC proliferation (in words)” value (shortened to “inhibition … (in words)”) ([1]; VEGF 10 ng/mL) was “no appreciable inhibition” and the inhibition at 20 µM [1] was 70 ± 22%.

`O=C1Nc2cc(Cl)ccc2S(=O)(=O)N1` [Compound 11b, 6-chloro-3-oxo-3,4-dihydro-2H-1,2,4-benzothiadiazine1,1-dioxide] was tested, and the inhibition at 20 µM [1] was 0%.

With `CSC1=NS(=O)(=O)c2ccc(Cl)cc2N1` [Compound 13b, 6-Chloro-3-methylsulfanyl-4H-1,2,4-benzothiadiazine 1,1-Dioxide] the inhibition at 20 µM [1, 4] was 21 ± 23%.

For `CC(C)NC1=NS(=O)(=O)c2ccc(Cl)cc2N1` [Compound 14b, 6-Chloro-3-isopropylamino-4H-1,2,4-benzothiadiazine 1,1-Dioxide], the inhibition at 20 µM [1] was 146 ± 18%.

`O=S1(=O)N=C(NCc2ccc(Cl)cc2)Nc2ccc(F)cc21` [Compound 16a, 3-((4-chlorobenzyl)amino)-7-fluoro-4H-benzo[e][1,2,4]thiadiazine 1,1-dioxide] was tested, and the “reduction of 22Rv1 cell viability” value [2] was “inactive”.

For `O=S1(=O)N=C(NCc2ccc(Cl)cc2)Nc2ccc(Br)cc21` [Compound 16c, 7-bromo-3-((4-chlorobenzyl)amino)-4H-benzo[e][1,2,4]thiadiazine 1,1-dioxide dioxide], the “inhibition of CII” value [3] was 45%.

`O=S1(=O)N=C(NCc2ccc(Cl)cc2)Nc2ccccc21` [Compound 16d, 3-((4-chlorobenzyl)amino)-4H-benzo[e][1,2,4]thiadiazine 1,1-dioxide] was tested, and the “inhibition of CII” value [3] was “inactive”.

Molecule `O=S1(=O)N=C(NCc2ccc(F)cc2)Nc2cc(Cl)ccc21` [Compound 17b, 6-chloro-3-((4-fluorobenzyl)amino)-4H-benzo[e][1,2,4]thiadiazine 1,1-dioxide] has an inhibition at 20 µM [1, 4] of 0%.

With `O=S1(=O)N=C(NCCc2ccccc2)Nc2cc(Cl)ccc21` [Compound 18b, 6-chloro-3-(phenethylamino)-4H-benzo[e][1,2,4]thiadiazine 1,1-dioxide] the “inhibition … (in words)” value ([1]; VEGF 10 ng/mL) was “suppressed HUVEC proliferation; also recorded: enhanced activity” and the inhibition at 20 µM [1] was 118 ± 12%.

`CCNC1=NS(=O)(=O)c2ccccc2N1` [Compound 19d, 3-(ethylamino)-4H-benzo[e][1,2,4]thiadiazine 1,1-dioxide] was tested, and the inhibition at 20 µM [1, 4] was 81 ± 25%.

In the case of `COc1ccc(CNC2=NS(=O)(=O)c3ccc(Cl)cc3N2)cc1` [Compound 20b, 6-chloro-3-((4-methoxybenzyl)amino)-4H-benzo[e][1,2,4]thiadiazine 1,1-dioxide], the “inhibition … (in words)” value ([1]; VEGF 10 ng/mL) is reported as “suppressed HUVEC proliferation; also recorded: enhanced activity” and the inhibition at 20 µM [1, 4] is reported as 132 ± 24%.

For `O=S1(=O)N=C(NC2CCCC2)Nc2ccc(F)cc21` [Compound 22a, 7-fluoro-3-(cyclopentylamino)-4H-benzo[e][1,2,4]thiadiazine 1,1-dioxide], the “inhibition of CII” value [3] was “inactive”.

`O=S1(=O)N=C(NCCCc2ccccc2)Nc2ccccc21` [Compound 23d, 3-((3-phenylpropyl)amino)-4H-benzo[e][1,2,4]thiadiazine 1,1-dioxide] was tested, and the inhibition at 20 µM [1, 4] was 39 ± 68% and the inhibition at 100 µM [3] was 0%.

With `O=S1(=O)N=C(NCc2ccc(C(F)(F)F)cc2)Nc2ccc(F)cc21` [Compound 25a, 7-fluoro-3-((4-(trifluoromethyl)benzyl)amino)-4H-benzo[e][1,2,4]thiadiazine 1,1-dioxide] the “inhibition of CII” value [3] was 7% and 0%.

Work on `O=S1(=O)N=C(NCc2ccc(C(F)(F)F)cc2)Nc2cc(Cl)ccc21` [Compound 25b, 6-chloro-3-((4-(trifluoromethyl)benzyl)amino)-4H-benzo[e][1,2,4]thiadiazine 1,1-dioxide] yielded an inhibition at 20 µM [1, 4] of 1 ± 43% and an inhibition at 100 µM [3] of 19%.

Molecule `COc1ccccc1CNC1=NS(=O)(=O)c2ccc(Cl)cc2N1` [Compound 26b, 6-chloro-3-((2-methoxybenzyl)amino)-4H-benzo[e][1,2,4]thiadiazine 1,1-dioxide] has an inhibition at 20 µM [1, 4] of 79 ± 26%.

`Cc1ccc(CNC2=NS(=O)(=O)c3cc(F)ccc3N2)cc1` [Compound 27a, 7-fluoro-3-((4-methylbenzyl)amino)-4H-benzo[e][1,2,4]thiadiazine 1,1-dioxide] gave an inhibition at 100 µM [3] of 23%.

In the case of `Cc1ccc(CNC2=NS(=O)(=O)c3ccc(Cl)cc3N2)cc1` [Compound 27b, 6-chloro-3-((4-methylbenzyl)amino)-4H-benzo[e][1,2,4]thiadiazine 1,1-dioxide], the inhibition at 20 µM [1, 4] is reported as 146 ± 18%.

With `COc1cccc(CNC2=NS(=O)(=O)c3ccc(Cl)cc3N2)c1` [Compound 28b, 6-chloro-3-((3-methoxybenzyl)amino)-4H-benzo[e][1,2,4]thiadiazine 1,1-dioxide] the inhibition at 20 µM [1] was 126 ± 26%.

`O=S1(=O)N=C(NCc2ccc(F)cc2F)Nc2ccc(Br)cc21` [Compound 29c, 7-bromo-3-((2,4-difluorobenzyl)amino)-4H-benzo[e][1,2,4]thiadiazine 1,1-dioxide] gave an inhibition at 20 µM [1, 4] of 127%.

`C=CCNC1=NS(=O)(=O)c2ccc(Cl)cc2N1` [Compound 32b, 3-(allylamino)-6-chloro-4H-benzo[e][1,2,4]thiadiazine 1,1-dioxide] was tested, and the inhibition at 20 µM [1, 4] was 0%.

`O=S1(=O)N=C(NCCc2c[nH]c3ccccc23)Nc2cc(Cl)ccc21` [Compound 36b, 3-((2-(1H-indol-3-yl)ethyl)amino)-6-chloro-4H-benzo[e][1,2,4]thiadiazine 1,1-dioxide] was tested, and the inhibition at 20 µM [1, 4] was 24 ± 38% and the inhibition at 100 µM [3] was 25%.

`COc1cccc(CCNC2=NS(=O)(=O)c3ccc(Cl)cc3N2)c1` [Compound 40b, 6-chloro-3-((3-methoxyphenethyl)amino)-4H-benzo[e][1,2,4]thiadiazine 1,1-dioxide] showed an inhibition at 20 µM [1] of 99 ± 22%.

For `Cc1ccccc1CNC1=NS(=O)(=O)c2ccc(Cl)cc2N1` [Compound 41b, 6-Chloro-3-((2-methylbenzyl)amino)-4H-benzo[e][1,2,4]thiadiazine 1,1-dioxide], the “inhibition … (in words)” value ([1]; VEGF 10 ng/mL) was “suppressed HUVEC proliferation; also recorded: enhanced activity” and the inhibition at 20 µM [1, 4] was 111 ± 9%.

In the case of `CSC1=NS(=O)(=O)c2cc(F)ccc2N1C` [Compound 42a, 7-fluoro-4-methyl-3-(methylthio)-4H-benzo[e][1,2,4]thiadiazine 1,1-dioxide], the “inhibition … (in words)” value ([1]; VEGF 10 ng/mL) is reported as “no appreciable inhibition” and the inhibition at 20 µM [1, 4] is reported as 41 ± 30%.

`Cc1cccc(CNC2=NS(=O)(=O)c3ccc(Cl)cc3N2)c1` [Compound 42b, 6-Chloro-3-((3-methylbenzyl)amino)-4H-benzo[e][1,2,4]thiadiazine 1,1-dioxide] was tested, and the “inhibition … (in words)” value ([1]; VEGF 10 ng/mL) was “suppressed HUVEC proliferation; also recorded: enhanced activity” and the inhibition at 20 µM [1] was 125 ± 10%.

In the case of `O=S1(=O)N=C(NCc2ccc(F)cc2)Nc2ccc(Cl)cc21` [Compound 54e, 7-Chloro-3-((4-fluorobenzyl)amino)-4H-benzo[e][1,2,4]thiadiazine 1,1-dioxide], the inhibition at 20 µM [1, 4] is reported as 70 ± 23%.

Work on `O=S1(=O)N=C(NCCc2ccccc2)Nc2ccc(Cl)cc21` [Compound 55e, 7-Chloro-3-(phenethylamino)-4H-benzo[e][1,2,4]thiadiazine 1,1-dioxide] yielded an inhibition at 20 µM [1] of 82 ± 10%.

`O=S1(=O)N=C(NCc2ccccc2)Nc2ccc(Cl)cc21` [Compound 57e, 3-(Benzylamino)-7-chloro-4H-benzo[e][1,2,4]thiadiazine 1,1-dioxide] was tested, and the “inhibition … (in words)” value ([1]; VEGF 10 ng/mL) was “suppressed HUVEC proliferation; also recorded: enhanced activity” and the inhibition at 20 µM [1, 4] was 122 ± 9%.

In the case of `O=S1(=O)N=C(NCc2ccncc2)Nc2ccc(Cl)cc21` [Compound 66e, 7-Chloro-3-((pyridin-4-ylmethyl)amino)-4H-benzo[e][1,2,4]thiadiazine 1,1-dioxide], the “inhibition … (in words)” value ([1]; VEGF 10 ng/mL) is reported as “suppressed HUVEC proliferation; also recorded: enhanced activity” and the inhibition at 20 µM [1, 4] is reported as 67 ± 27%.
